According to US20070254288A1, “Diagnostic methods for pain sensitivity and chronicity and for tetrahydrobiopterin-related disorders” (The General Hospital Corporation, priority 2005, published 2007):
Entries after “also recorded” stand apart in the source; their conditions may differ. Structures can show the parent of a compound that is named as a salt.

Assays:
biopterin = experiment: Forskolin stimulation of whole blood from healthy volunteers: biopterin; format: cell-based, human; conditions: 10 μM, 24 h
Description: FIGS. 14C-14F show the effect of forskolin on patient white blood cells. […] White bars unstimulated; grey after stimulation. […] Results represent means with SEM.

Sprague Dawley rats [1] = experiment: Nociceptive thresholds in naïve animals (von Frey, radiant heat); format: in vivo, rat
Procedure: (§1) Animals were fully habituated and experiments performed blinded. Threshold for eliciting a withdrawal reflex to graded strength monofilament von Frey hairs (0.0174-20.9 g) was measured to assess mechanical allodynia. To measure cold allodynia, a drop of acetone was applied to the plantar hindpaw, and the time the animal spent licking, shaking or lifting the paw was measured (Tegeder et al., J Neurosci 24:1637-1645 (2004)). Paw withdrawal latency to radiant heat (lamp with 8 V, 50 W) assessed heat evoked pain (Ugo Basile).
(§2) DAHP was dissolved in 1:1 polyethylene glycol (PEG400) and 1×PBS, pH 7.4 (15 mg/ml) and administered i.p. or intrathecally (250 μg/kg/h; 5 μl/h). For all i.t. injections/infusions a spinal catheter (Recathco) was used and implanted as described (Kunz et al., Pain 110:409-418 (2004)). Infusions with an osmotic pump (Alzet). 6R-BH4 in ACSF was injected i.t. (10 μg, single 10 μl injection). N-acetyl-serotonin in 1×PBS pH 7.4 containing 3% ethanol was delivered by i.t. infusion (100 μg/kg/h; 5 μl/h). Control animals received the appropriate vehicle. All drugs from Sigma-Aldrich.

Sprague Dawley rats [2] = experiment: Spared nerve injury (SNI) model: mechanical (von Frey) and cold (acetone) allodynia; format: in vivo, rat; conditions: SNI
Procedure: (§3) Adult male Sprague Dawley rats (150-200 g, Charles River Laboratories) were used. For the SNI model two branches of the sciatic nerve, the common peroneal and the tibial nerve, were ligated and sectioned distally. For the CCI model the sciatic nerve was constricted with three Dexon 4/0 ligatures. For the SNL model, the L5 spinal nerve was tightly ligated. All surgical procedures were under isoflurane anesthesia. For the Formalin test 50 μl of 5% formaldehyde solution were injected into a hindpaw and flinches were counted per minute up to 60 min. Paw inflammation was induced with 50 μl complete Freund's adjuvant (CFA) injected into a hindpaw. Nociceptive analysis was done blinded, and animals were fully habituated to the room and test cages. Mechanical allodynia was assessed with graded strength monofilament von Frey hairs (0.0174-20.9 gram, log scaled), cold allodynia with the acetone test and heat hyperalgesia with the Hargreaves test. Drugs (Sigma) were injected intraperitoneally or intrathecally through a spinal catheter, osmotic pumps were used for infusion. Control animals received vehicle. L4/5 DRG and spinal cord tissue was processed for QRT-PCR, Western blotting, in situ hybridization and immunofluorescence studies.
as §1, §2
Data are means ±SEM. The number of animals per group was 9-12. Areas under the “effect versus time” curves (AUC) were calculated using the linear trapezoidal rule and compared with Student's t-test or univariate analysis of variance (ANOVA) with subsequent t-tests employing a Bonferroni alpha-correction for multiple comparisons. All other data were analyzed with univariate ANOVA or ANOVA for repeated measurements. P at 0.05 for all tests.

[3] = system: BH4 synthesis (GTP cyclohydrolase activity); experiment: Tissue concentrations of neopterin and biopterin in L4/5 DRGs (LC/MS-MS); format: in vivo, rat; conditions: seven days after SNI
Procedure: Homogenized tissue was oxidized with iodine, and pteridines were extracted on Oasis MCX cartridges. Concentrations of total biopterin, neopterin, and the internal standard rhamnopterin were determined by LC/MS-MS. LC analysis under gradient conditions on a Nucleosil C8 column; MS-MS analyses on an API 4000 Q TRAP triple quadrupole mass spectrometer. Precursor-to-product ion transitions of m/z 236→192 for biopterin, m/z 252→192 for neopterin, m/z 265→192 for rhamnopterin were used for the MRM. Linearity from 0.1-50 ng/ml. The coefficient of correlation for all measured sequences was at least 0.99. The intra-day and inter-day variability was <10%.

[4] = Observation of general well-being, body weight, gait, activity; format: in vivo, rat; conditions: 100 μg/kg/hr i.t. after SNI
Sprague Dawley rats [5] = experiment: CFA-induced paw inflammation: thermal hyperalgesia (Hargreaves); format: in vivo, rat; conditions: single dose 50 mg/kg i.p.; 50 mg/kg
Procedure: as §3, with “Drugs (Sigma) were injected intraperitoneally or intrathecally through a spinal catheter, osmotic pumps were used for infusion. Control animals received vehicle. L4/5 DRG and spinal cord tissue was processed for QRT-PCR, Western blotting, in situ hybridization and immunofluorescence studies.” left out
For the Formalin test 50 μl of 5% formaldehyde solution were injected into one hindpaw and flinches were counted per minute up to 60 min. […]
as §1
Data are means ±SEM. […] Areas under the “effect versus time” curves (AUC) were calculated using the linear trapezoidal rule and compared with Student's t-test or univariate analysis of variance (ANOVA) with subsequent t-tests employing a Bonferroni alpha-correction for multiple comparisons. All other data were analyzed with univariate ANOVA or ANOVA for repeated measurements. […]

[6] = system: cultured adult rat DRG neurons; experiment: Calcium imaging (fura-2) in cultured adult rat DRG neurons; format: cell-based
Procedure: Miniature EPSCs were recorded at −70 mV by whole cell patch clamp in adult rat transverse spinal cord slices (Baba et al., Mol Cell Neurosci 24:818-830 (2003)). Intracellular [Ca]I was measured fluorometrically (ΔF 340/380) in cultured adult DRG neurons loaded with fura-2. 6R-BH4 (0.3-10 μM), DEA-NONOate (50 μM), and L-NAME (10-100 μM) were applied using a multibarrel fast drug delivery system.

C=C[C@@]1(C)CC(=O)[C@]2(O)[C@@]3(C)[C@@H](O)CCC(C)(C)[C@@H]3[C@H](O)[C@H](OC(C)=O)[C@@]2(C)O1 [forskolin]
biopterin increase in whole blood (biopterin; homozygous carriers of the haplotype): 20%
biopterin increase in whole blood (biopterin; non-carriers): about 60%

Nc1nc2ncc([C@H](O)[C@H](O)CO)nc2c(=O)[nH]1 [neopterin]
mechanical and thermal pain sensitivity (Sprague Dawley rats [1]; naïve rats, i.t. 10 μg, 10 μl): had no effect on mechanical and thermal pain sensitivity; also recorded: had no significant effect

CC(=O)NCCc1c[nH]c2ccc(O)cc12 [NAS, N-acetyl-serotonin]
mechanical and cold allodynia (Sprague Dawley rats [2]; 100 μg/kg/h i.t. infusion 14 days): significantly reduced mechanical and cold allodynia; also recorded: significantly reduces nerve-injury evoked mechanical and cold allodynia
total biopterin levels in L4/5 DRGs [3]: reduced biopterin levels; also recorded: significantly reduces total biopterin levels
overt adverse effects [4]: without overt adverse effects
thermal hyperalgesia (Sprague Dawley rats [5]): significantly reduces thermal hyperalgesia

COC(=O)[C@@H](N)CCCNC(=N)N[N+](=O)[O-] [L-NAME]
mechanical and cold allodynia (Sprague Dawley rats [2]; 25 mg/kg i.p., 25 mg/kg): significant effects for von Frey and acetone responses; also recorded: reduced SNI-evoked mechanical and cold allodynia
BH4 mediated increase in [Ca2+]I ([6]; 50 μM): significantly reduced the BH4 mediated increase
DEA-NONOate induced increase of [Ca2+]I ([6]; L-NAME 50 μM, DEA-NONOate 50 μM): has no effect
reduction of the BH4 effect on intracellular calcium ([6]; n=29, p<0.01): 47±4%

C[C@H](O)[C@H](O)[C@H]1CNc2nc(N)[nH]c(=O)c2N1 [6R-BH4, (6R)-5,6,7,8-tetrahydrobiopterin dihydrochloride]
latency of pain production (Sprague Dawley rats [1]; rat, in vivo): < 30 min
recorded cells with increased intracellular calcium ([6]; 0.3-10 μM, n=95): 67%

CCN(CC)/[N+]([O-])=N/O.CCNCC [DEA-NONOate]
intracellular calcium increase ([6]; 50 μM, n=32, compared with BH4): produced similar increases
